Laboratory results published in patent publication US7645781B2, “N-aryl-2-oxazolidinone-5-carboxamides and their derivatives” (Pfizer Inc, priority 2002, dated 2010).
Values after ≈ are worked out from the molar mass of the structure shown.

system: Staphylococcus aureus (SAUR 9213); assay: MIC by standard agar dilution method; assay type: cell-based; settings: Mueller Hinton agar, incubated overnight at 35° C., read-out: MIC
Text: The antibacterial agents of this invention have useful activity against a variety of organisms. The in vitro activity of compounds of this invention can be assessed by standard testing procedures such as the determination of minimum inhibitory concentration (MIC) by agar dilution as described in “Approved Standard. Methods for Dilution Antimicrobial Susceptibility Tests for Bacteria That Grow Aerobically”, 3rd. ed., published 1993 by the National Committee for Clinical Laboratory Standards, Villanova, Pa., USA. The in vitro MICs of test compounds are determined by a standard agar dilution method. A stock drug solution of each analog is prepared in the preferred solvent, usually DMSO:H2O (1:3). Serial 2-fold dilutions of each sample are made using 1.0 ml aliquots of sterile distilled water. To each 1.0 ml aliquot of drug is added 9 ml of molten Mueller Hinton agar medium. The drug-supplemented agar is mixed, poured into 15×100 mm petri dishes, and allowed to solidify and dry prior to inoculation. Vials of each of the test organisms are maintained frozen in the vapor phase of a liquid nitrogen freezer. Test cultures are grown overnight at 35° C. on the medium appropriate for the organism. Colonies are harvested with a sterile swab, and cell suspensions are prepared in Trypticase Soy broth (TSB) to equal the turbidity of a 0.5 McFarland standard. A 1:20 dilution of each suspension is made in TSB. The plates containing the drug supplemented agar are inoculated with a 0.001 ml drop of the cell suspension using a Steers replicator, yielding approximately 10^4 to 10^5 cells per spot. The plates are incubated overnight at 35° C. Following incubation the Minimum Inhibitory Concentration (MIC μg/ml), the lowest concentration of drug that inhibits visible growth of the organism, is read and recorded.

SMILES | MIC [µg/mL]
CN1C(=O)CSc2cc(N3C[C@H](C(N)=O)OC3=O)ccc21 [Example 62, (5R)-3-(3,4-Dihydro-4-methyl-3-oxo-2H-1,4-benzothiazin-7-yl)-2-oxo-5-oxazolidinecarboxamide] | 4 (≈ 13 µM)
CCNC(=O)[C@H]1CN(c2ccc(N3C=CC(=O)CC3)c(F)c2)C(=O)O1 [Example 71, (5R)-N-Ethyl-3-[4-(4-oxo-3,4-dihydro-1(2H)-pyridinyl)-3-fluorophenyl]-2-oxo-5-oxazolidinecarboxamide] | 4 (≈ 11.5 µM)
O=C1C=CN(c2ccc(N3C[C@H](C(=O)NCCF)OC3=O)cc2)CC1 [Example 75, (5R)-N-(2-Fluoroethyl)-3-[4-(4-oxo-3,4-dihydro-1(2H)-pyridinyl)phenyl]-2-oxo-5-oxazolidinecarboxamide] | 8 (≈ 23 µM)
Cn1c(=O)oc2cc(N3C[C@H](C(N)=O)OC3=O)cc(F)c21 [Example 86, (5R)-3-(4-Fluoro-3-methyl-2-oxo-2,3-dihydro-6-benzoxazolyl)-2-oxo-5-oxazolidinecarboxamide] | 4 (≈ 13.5 µM)
CNC(=O)[C@H]1CN(c2ccc(N3C=CC(=O)CC3)cc2)C(=O)O1 [Example 73, (5R)-N-Methyl-3-[4-(4-oxo-3,4-dihydro-1(2H)-pyridinyl)phenyl]-2-oxo-5-oxazolidinecarboxamide] | 2 (≈ 6.34 µM)
CC(C)n1c(=O)oc2cc(N3C[C@H](C(N)=O)OC3=O)cc(F)c21 [Example 88, (5R)-3-(4-Fluoro-3-isopropyl-2-oxo-2,3-dihydro-6-benzoxazolyl)-2-oxo-5-oxazolidinecarboxamide] | 4 (≈ 12.4 µM)
CNC(=O)[C@H]1CN(c2ccc3c(c2)OC(F)(F)C(=O)N3C)C(=O)O1 [Example 81, (5R)-N-Methyl-3-(2,2-difluoro-4-methyl-3,4-dihydro-3-oxo-2H-1,4-benzoxazin-7-yl)-2-oxo-5-oxazolidinecarboxamide] | 4 (≈ 11.7 µM)
CNC(=O)[C@H]1CN(c2cc(F)c3c(c2)oc(=O)n3C)C(=O)O1 [Example 89, (5R)-3-(4-Fluoro-3-methyl-2-oxo-2,3-dihydro-6-benzoxazolyl)-N-methyl-2-oxo-5-oxazolidinecarboxamide] | 16 (≈ 51.7 µM)
CNC(=O)[C@H]1CN(c2ccc3c(c2)SCC(=O)N3C)C(=O)O1 [Example 63, (5R)-N-Methyl-3-(3,4-dihydro-4-methyl-3-oxo-2H-1,4-benzothiazin-7-yl)-2-oxo-5-oxazolidinecarboxamide] | 4 (≈ 12.4 µM)
CCn1c(=O)oc2cc(N3C[C@H](C(N)=O)OC3=O)cc(F)c21 [Example 87, (5R)-3-(3-Ethyl-4-fluoro-2-oxo-2,3-dihydro-6-benzoxazolyl) -2-oxo-5-oxazolidinecarboxamide] | 2 (≈ 6.47 µM)
CNC(=O)[C@H]1CN(c2cc(F)c(C3(C)CN(C(=O)OC)C3)c(F)c2)C(=O)O1 [Example 58, (5R)-(−)-N-Methyl-3-[3,5-difluoro-4-(1-methoxycarbonyl-3-methylazetidin-3-yl)phenyl]-2-oxo-5-oxazolidinecarboxamide] | 8 (≈ 20.9 µM)
CCNC(=O)[C@H]1CN(c2ccc(N3C=CC(=O)CC3)cc2)C(=O)O1 [Example 74, (5R)-N-Ethyl-3-[4-(4-oxo-3,4-dihydro-1(2H)-pyridinyl)phenyl]-2-oxo-5-oxazolidinecarboxamide] | 8 (≈ 24.3 µM)
CN1C(=O)C(F)(F)Oc2cc(N3C[C@H](C(N)=O)OC3=O)ccc21 [Example 80, (5R)-3-(2,2-Difluoro-4-methyl-3,4-dihydro-3-oxo-2H-1,4-benzoxazin-7-yl)-2-oxo-5-oxazolidinecarboxamide] | 2 (≈ 6.11 µM)
CNC(=O)[C@H]1CN(c2ccc(N3C=CC(=O)CC3)c(F)c2)C(=O)O1 [Example 70, (5R)-N-Methyl-3-[4-(4-oxo-3,4-dihydro-1(2H)-pyridinyl)-3-fluorophenyl]-2-oxo-5-oxazolidinecarboxamide] | 2 (≈ 6 µM)
CNC(=O)[C@H]1CN(c2cc(F)c(N3C=CC(=O)CC3)c(F)c2)C(=O)O1 [Example 77, (5R)-N-Methyl-3-[4-(4-oxo-3,4-dihydro-1(2H)-pyridinyl)-3,5-difluorophenyl]-2-oxo-5-oxazolidinecarboxamide] | 2 (≈ 5.69 µM)
